± gives the standard deviation of the averaged measurements.
Experiments:
[1] = tested on: Homo sapiens (human subject panel, olfactory perception); assay: perceived odor pleasantness rating (rating 0-100); higher = more pleasant
Method: (§1)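 Human olfactory psychophysics. 55 healthy subjects (after excluding 6 low performers) sniffed 1 mL of each odorant diluted in paraffin oil (vials, two dilutions per molecule, 20 molecules presented twice). Each subject rated intensity, pleasantness and familiarity on a 0-100 slider, starting at 50 and required to move. Ratings were given only when the subject reported detecting a smell; per-subject ratings are averaged over subjects.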

[2] = tested on: Homo sapiens (human subject panel, olfactory perception); assay: perceived odor familiarity rating (rating 0-100); higher = more familiar
Method: as §1

[3] = tested on: Homo sapiens (human subject panel, olfactory perception); assay: perceived odor intensity rating (rating 0-100); higher = stronger perceived smell
Method: as §1

[4] = odor dilution in paraffin oil: 1/10
[5] = odor dilution in paraffin oil: 1/1,000
[6] = odor dilution in paraffin oil: 1/100,000
[7] = odor dilution in paraffin oil: 1/10,000,000

Structure (SMILES)	perceived odor pleasantness rating [1, 4]	perceived odor pleasantness rating [1, 5]	perceived odor familiarity rating [2, 4]	perceived odor familiarity rating [2, 5]	perceived odor intensity rating [3, 4]	perceived odor intensity rating [3, 5]	perceived odor pleasantness rating [1, 6]	perceived odor familiarity rating [2, 6]	perceived odor intensity rating [3, 6]	perceived odor pleasantness rating [1, 7]	perceived odor familiarity rating [2, 7]	perceived odor intensity rating [3, 7]
CCC(C)C1CCCCC1=O (stereo not drawn) [2-sec-Butylcyclohexanone]	49.3 ± 29	51 ± 24	58.9 ± 32	44.6 ± 32	81.9 ± 17	56.8 ± 28	–	–	–	–	–	–
COc1ccc(C(C)=O)cc1OC [3,4-Dimethoxyacetophenone]	38.9 ± 26	51.4 ± 20	48.6 ± 30	35.9 ± 26	61.7 ± 26	26.5 ± 30	–	–	–	–	–	–
CC(C)CCCC(C)CCO (stereo not drawn) [3,7-Dimethyl-1-octanol]	–	40.2 ± 28	–	57.6 ± 30	–	74.7 ± 22	43.8 ± 19	40.5 ± 26	24.2 ± 26	–	–	–
CC(C)=CCCC(C)=CC#N [3,7-Dimethyl-2,6-octadienenitrile]	–	64.5 ± 28	–	67.1 ± 29	–	75.1 ± 22	60.3 ± 23	48.4 ± 34	46.2 ± 28	–	–	–
Cc1ccc(C(C)CC=O)o1 (stereo not drawn) [3-(5-Methyl-2-furyl)butanal]	–	27.9 ± 24	–	41.5 ± 32	–	74.3 ± 22	41.6 ± 25	36 ± 31	30.8 ± 30	–	–	–
CSCCC=O [3-(Methylthio)propionaldehyde]	–	–	–	–	–	–	23.9 ± 28	53.5 ± 33	79.6 ± 23	30.7 ± 26	49.9 ± 33	70.3 ± 25
CSCCCN=C=S [3-(Methylthio)propyl isothiocyanate]	–	25.2 ± 26	–	49.7 ± 32	–	82.7 ± 21	34.3 ± 27	47.6 ± 30	62.5 ± 29	–	–	–
CSCCCO [3-(methylthio)-1-propanol]	–	–	–	–	–	–	22.9 ± 26	53.7 ± 31	82.2 ± 17	24.8 ± 22	43.2 ± 31	66.3 ± 26
CC(=O)c1cc(C)oc1C [3-Acetyl-2,5-dimethylfuran]	–	–	–	–	–	–	31.6 ± 22	44.9 ± 27	65.6 ± 24	48.9 ± 22	40.2 ± 32	15.4 ± 22
CC(=O)c1cc(C)sc1C [3-Acetyl-2,5-dimethylthiophene]	–	27.7 ± 26	–	47.4 ± 29	–	78.9 ± 20	49.4 ± 29	35.4 ± 30	19.4 ± 20	–	–	–
CC(=O)c1cccnc1 [3-Acetylpyridine]	–	32.3 ± 29	–	48.2 ± 33	–	76.2 ± 23	44.8 ± 29	30 ± 31	24.6 ± 30	–	–	–
CCCCCC/C=C/C(C)=O [3-Decen-2-one]	–	33.9 ± 22	–	42.5 ± 28	–	65.4 ± 25	46.8 ± 18	27.1 ± 21	21.6 ± 23	–	–	–
CC(C)CCS [3-Methyl-1-butanethiol]	–	–	–	–	–	–	13.3 ± 18	54.6 ± 34	88.3 ± 14	32 ± 26	46.5 ± 29	54.1 ± 30
CC1CCCC(=O)C1 (stereo not drawn) [3-Methylcyclohexanone]	–	45.5 ± 30	–	53.2 ± 34	–	71 ± 28	41.7 ± 22	34 ± 27	39.3 ± 34	–	–	–
CCCCCC(O)CC (stereo not drawn) [3-Octanol]	–	38.2 ± 25	–	45.5 ± 29	–	72 ± 23	49.5 ± 18	35.9 ± 28	26.9 ± 25	–	–	–
CCCCCC(CC)OC(C)=O (stereo not drawn) [3-Octyl Acetate]	44.9 ± 31	59 ± 26	51.6 ± 32	48.9 ± 29	83.7 ± 17	39.7 ± 31	–	–	–	–	–	–
CCC(=O)CC [3-Pentanone]	–	41.1 ± 26	–	53.3 ± 32	–	57.4 ± 35	45.4 ± 24	39.5 ± 29	33.3 ± 32	–	–	–
OCCCc1ccccc1 [3-Phenyl-1-propanol]	–	48.6 ± 33	–	49.5 ± 34	–	63.3 ± 30	45.4 ± 25	36.7 ± 27	34.5 ± 32	–	–	–

Reference: the supplement of paper PMC4977894
